Test results reported in patent publication US8691222B2, “NLRR-1 antagonists and uses thereof” (Genentech, Inc., priority 2007, dated 2014).

Key:
[1] = tested on: NCI-H2009 cells; conditions: NCI-H2009, characterized as sensitive to erlotinib; cited from earlier work
[2] = tested on: lung tumor cell lines which endogenously express NLRR-1; conditions: several lung tumor cell lines classified as resistant to erlotinib; cited from earlier work
[3] = tested on: SK-MES1 lung carcinoma cell line; test: Proliferation assay (Cell Titer Glo) after siRNA knockdown, SK-MES1; assay type: cell-based, human; conditions: 100 nM siRNA; 4 days; SK-MES1, does not express NLRR-1
Protocol: (§1) The NLRR-1 siRNA duplex was designed and synthesized by Dharmacon (Lafayette, Colo.). The sense sequence is […] (SEQ ID NO: 11) and the antisense sequence is 5′-[…] (SEQ ID NO: 12). NCI-H2009, NCI-H647, NCI-H226, and SK-MES-1 cells were seeded at 2830/cm^2 and NCI-H520 and NCI-H1781 cells were seeded at 5660/cm^2. 100 nM of siRNA was transfected with DharmaFECT 4 for 6 to 8 hours before the transfectant was replaced with fresh media. A non-targeting siRNA sequence (Dharmacon) was used as a negative control. RT-PCR was performed on RNA extracted from 60 mm plates using RNeasy (Qiagen, Valencia, Calif.) per manufacturer's instructions. EGFR flow cytometry and immunoblot: After siRNA transfection for 24 hours, cells were harvested and stained with α-EGFR antibody conjugated to PE (BD Pharmingen) and propidium iodide for flow cytometry analysis. 10,000 events were collected and cells were gated on FSC, SSC, and PI. For immunoblot analysis, lysates were immunoblotted with α-EGFR (MBL) or α-βtubulin (Santa Cruz Biotechnology). […] Cell growth was assessed after 4 days by Cell Titer Glo (Promega, Madison, Wis.) per manufacturer's instructions. […] For apoptosis assay with starvation, cells were starved in Optimem I. For both assays, cell viability was measured with Cell Titer Glo (Promega, Madison, Wis.) and apoptosis was measured with Caspase-Glo 3/7 (Promega) after 2 days. […]

[4] = tested on: NCI-H1781 cells; test: Apoptosis and erlotinib synergy assay, NCI-H1781; assay type: cell-based, human; conditions: NLRR-1 siRNA knockdown plus increasing concentrations of erlotinib; NCI-H1781, resistant; FIG. 8B
Protocol: as §1

[5] = tested on: NCI-H520 cells; test: Apoptosis and erlotinib synergy assay, NCI-H520; assay type: cell-based, human; conditions: NLRR-1 siRNA knockdown plus increasing concentrations of erlotinib; NCI-H520, resistant; FIG. 8D
Protocol: as §1

[6] = tested on: NCI-H226 cells; test: Apoptosis and erlotinib synergy assay, NCI-H226; assay type: cell-based, human; conditions: NLRR-1 siRNA knockdown plus increasing concentrations of erlotinib; NCI-H226, resistant; FIG. 8C
Protocol: as §1

[7] = tested on: SK-MES cells (NLRR-1-negative); test: Apoptosis and erlotinib synergy assay, SK-MES; assay type: cell-based, human; conditions: NLRR-1 siRNA knockdown plus increasing concentrations of erlotinib, erlotinib-sensitive, FIG. 8F
Protocol: as §1

[8] = tested on: NCI-H2009 cells; test: Apoptosis and erlotinib synergy assay, NCI-H2009; assay type: cell-based, human; conditions: NLRR-1 siRNA knockdown plus increasing concentrations of erlotinib; NCI-H2009, erlotinib-sensitive; FIG. 8E
Protocol: as §1

[9] = tested on: cell lines that endogenously expressed NLRR-1; test: Apoptosis assay with starvation (caspase 3/7) after siRNA knockdown; assay type: cell-based, human; conditions: vs non-targeting control RNA
Protocol: as §1, with “instructions.” for “instructions. EGFR flow cytometry and immunoblot: After siRNA transfection for 24 hours, cells were harvested and stained with α-EGFR antibody conjugated to PE (BD Pharmingen) and propidium iodide for flow cytometry analysis. 10,000 events were collected and cells were gated on FSC, SSC, and PI. For immunoblot analysis, lysates were immunoblotted with α-EGFR (MBL) or α-βtubulin (Santa Cruz Biotechnology).”
EGFR pathway activation in tumor cells has consequences for many important cellular processes, including cell survival. […] NLRR-1 was knocked down using siRNA, cells were subjected to starvation to promote apoptosis, and apoptosis was measured by caspase 3/7 activity and normalized for viable cells (FIG. 6C).

[10] = tested on: EGFR in NCI-H2009, NCI-H226, NCI-H647 cells; test: EGFR flow cytometry and immunoblot after NLRR-1 siRNA knockdown; assay type: cell-based, human
Protocol: as §1

[11] = tested on: NCI-H647 cells; test: Apoptosis and erlotinib synergy assay, NCI-H647; assay type: cell-based, human; conditions: NLRR-1 siRNA knockdown plus increasing concentrations of erlotinib; NCI-H647, erlotinib-resistant; FIG. 8A
Protocol: as §1

| Compound | IC50 [1] | IC50 [2] | proliferation (ATP-based cell viability) [3] | apoptosis (caspase 3/7 activity) in presence of erlotinib [4] | apoptosis (caspase 3/7 activity) in presence of erlotinib [5] | apoptosis (caspase 3/7 activity) in presence of erlotinib [6] | apoptosis (caspase 3/7 activity) in presence of erlotinib [7] | apoptosis (caspase 3/7 activity) in presence of erlotinib [8] | apoptosis (caspase 3/7 activity normalized for viable cells) [9] | total EGFR protein level ([10]; NLRR-1 depleted vs control-depleted cells, immunoblot) | surface EGFR protein level ([10]; siRNA knockdown 24 hours, NCI-H2009, NCI-H226, NCI-H647, vs non-targeting siRNA, flow cytometry) | apoptosis (caspase 3/7 activity) in presence of erlotinib [11] |
| --- | --- | --- | --- | --- | --- | --- | --- | --- | --- | --- | --- | --- |
| C#Cc1cccc(Nc2ncnc3cc(OCCOC)c(OCCOC)cc23)c1 [erlotinib] | ≤ 2 µM | ≥ 8 µM |  |  |  |  |  |  |  |  |  |  |
| NLRR-1 siRNA: siRNA duplex by Dharmacon; sense GCCAGAACCUGAAAUUUACUU (SEQ ID NO: 11), antisense 5′-PGUAAAUUUCAGGUUCUGGCUU (SEQ ID NO: 12) (5' phosphate on antisense, further chemistry not given here) |  |  | no significant defect in proliferation | synergy | possibly also, to a lesser degree | synergy | did not show any increase in apoptosis | did not show any increased apoptosis | increase in apoptosis | unchanged | increase in surface EGFR | significant increase in sensitivity |
